In patent US12667126B2, “Malonyl steviol glycosides and their comestible use” (Firmenich SA, priority 2020, dated 2026):

Legend:
[1] = Sensory testing as sweet modifier in SG95 base; conditions: 30 ppm, seven experts, scale -5 to 5 vs reference; for sweet effect as sweet modifier: SG95 (PureCircle) base; for licorice effect as sweet modifier / sweet lingering effect as sweet modifier: SG95 base
Description: (§1) Compound 101 was evaluated as a sweet modifier in SG95 (PureCircle) base at 30 ppm. Seven experts were asked to compare the intensity difference between reference (SG95 base) and Compound 101 was added to the sample. The taste properties (such as sweet, licorice, sweet lingering) were evaluated on a scale of −5 to 5 (−5 denoted strong masking effect and 5 denoted strong enhancing effect, 0 being the intensity of reference).
as §1, with “105” for “101”, “SG95” for “SG95 (PureCircle)”, “added” for “added to the”
as §1, with “104” for “101”, “SG95” for “SG95 (PureCircle)”, “104 adding” for “101 was added to the”

[2] = Sensory testing: sweet capacity in water solution versus sucrose; conditions: dosages 62.5 ppm and 250 ppm, ten experts, dosage for equal sweet intensity from sucrose
Description: Malonyl glycosides 101, 102, 104 and 105 were evaluated in water solution at two selected dosages (62.5 ppm and 250 ppm) to identify their sweet capacity. Ten experts were asked to evaluate sweet, licorice, and sweet lingering intensities on a linear scale. Then, the dosage for equal sweet intensity from sucrose was identified. Sweet capacity for each compound was calculated based on dosage difference between tested compound and sucrose.

Structure (SMILES) | sweet effect as sweet modifier [1] | licorice effect as sweet modifier [1] | sweet lingering effect as sweet modifier [1] | sweet capacity (times sweeter than sucrose) [2]
C=C1C[C@@]23CC[C@H]4[C@@](C)(CCC[C@@]4(C)C(=O)O[C@@H]4O[C@H](COC(=O)CC(=O)O)[C@@H](O)[C@H](O)[C@H]4O)[C@@H]2CCC1(O[C@@H]1O[C@H](CO)[C@@H](O)[C@H](O)[C@H]1O)C3 [Compound 104, 6′-O-malonyl rubusoside] | sweet enhancement effect | performed well on tests for licorice and lingering masking effect | performed well on tests for licorice and lingering masking effect | about 120 times sweeter than sucrose
C=C1C[C@@]2(C)CC[C@H]3[C@@](C)(CCC[C@@]3(C)C(=O)O[C@@H]3O[C@H](COC(=O)CC(=O)O)[C@@H](O)[C@H](O)[C@H]3O)[C@@H]2CCC1(C)O[C@@H]1O[C@H](CO)[C@@H](O)[C@H](O)[C@H]1O[C@@H]1O[C@H](CO)[C@@H](O)[C@H](O)[C@H]1O (some centres unmarked) [Compound 102, 6′-O-malonyl stevioside] | – | – | – | about 150 times sweeter than sucrose
C=C1C[C@@]23CC[C@H]4[C@@](C)(CCC[C@@]4(C)C(=O)O[C@@H]4O[C@H](COC(=O)CC(=O)O)[C@@H](O)[C@H](O)[C@H]4O)[C@@H]2CCC1(O[C@@H]1O[C@H](CO)[C@@H](O)[C@H](O[C@@H]2O[C@H](CO)[C@@H](O)[C@H](O)[C@H]2O)[C@H]1O[C@@H]1O[C@H](CO)[C@@H](O)[C@H](O)[C@H]1O)C3 [Compound 101, 6′-O-malonyl Rebaudioside A] | sweet enhancement effect | better performance in licorice and sweet lingering masking than Rebaudioside A | better performance in licorice and sweet lingering masking than Rebaudioside A | about 150 times sweeter than sucrose
C=C1C[C@@]23CC[C@H]4[C@@](C)(CCC[C@@]4(C)C(=O)O[C@@H]4O[C@H](CO)[C@@H](O)[C@H](O)[C@H]4O)[C@@H]2CCC1(O[C@@H]1O[C@H](CO)[C@@H](O)[C@H](O)[C@H]1O[C@@H]1O[C@H](COC(=O)CC(=O)O)[C@@H](O)[C@H](O)[C@H]1O)C3 [Compound 105, 6″′-O-malonyl stevioside] | sweet enhancement effect | – | – | about 100 times sweeter than sucrose
